Entries after “also recorded” stand apart in the source; their conditions may differ.
Experiments:
bleomycin hydrolase [1] = experiment: Screening for bleomycin hydrolase production promoting effects (RT-PCR, cultured human keratinocytes); assay type: cell-based; conditions: for expression of bleomycin hydrolase in comparison with the control: 50 μg/ml, human keratinocytes, 24 hours, control 0.1% 1,3-butylene glycol, FIG. 24; for production of bleomycin hydrolase, concentration dependence: general statement in description
Procedure: Human keratinocytes derived from normal foreskin (Cascade Biologics Inc., Portland, Md.) were cultured for 24 hours at […] in the presence of each of the herbal medicine extracts or pharmaceutical agents ([…] to 50 μg/ml) shown in FIG. 24 in keratinocyte growth medium consisting of MCDB medium supplemented with epidermal growth factor (0.1 ng/ml), insulin (10 μg/ml), hydrocortisone (0.5 μg/ml), bovine pituitary extract (0.4%), gentamycin (50 μg/ml) and amphotericin B (50 ng/ml). 0.1% 1,3-butylene glycol was used as a control.
Total RNA (500 ng) isolated from the human keratinocytes cultured in the manner described above was reverse-transcribed using random hexamers and Superscript II RNase H-transcriptase (Gibco-BRL Corp., Gaithersburg, Md.), followed by subjecting to PCR amplification using Taq DNA polymerase (Takara Corp., Kyoto, Japan) and the following primers. 40 amplification cycles were carried out consisting of 30 seconds at 94° C., 1 minute at 60° C. and 1 minute at 72° C.
The primers used in PCR are indicated below.

bleomycin hydrolase [2] = experiment: Effect of cytokines on bleomycin hydrolase mRNA expression, quantitative PCR (Experiment 5, FIG. 14); assay type: cell-based, human; conditions: keratinocytes in the proliferation stage, 24 hours, IL-4 and TNFα 0.1-10 ng/ml, IFNγ 1.0-100 ng/ml
Procedure: (§1) Normal human epidermal keratinocytes derived from neonatal epidermis (Kurabo Industries, Ltd., Osaka, Japan) were cultured in EpiLife medium (Cascade Biologics, Inc., Portland, Oreg.) containing low-concentration (0.03 mM) calcium and HKGS Growth Supplement (Cascade Biologics, Inc.). All cells were incubated at 37° C. in the presence of 5% CO2 and were used within 4 passages of subculturing. Cells were collected at 70% confluence, 100% confluence, 2 days after reaching confluence, and 2 days after reaching confluence in 2 mM calcium.
The expression level of bleomycin hydrolase in keratinocytes was measured by quantitative PCR according to the following method using Light Cycler 480 (Roche Diagnostics GmbH, Mannheim, Germany). Light Cycler FastStart DNA Master CYBR Green I was used for the reagent. 0.6 μl aliquots of each of the following bleomycin hydrolase primers and 6.8 μl of water were added to 10 μl of SYBR Green I Master Mix followed by bringing to a total volume of 20 μl and carrying out PCR for 45 cycles consisting of 15 seconds at 95° C., 20 seconds at 55° C. and 20 seconds at 72° C. The results obtained were corrected by comparing with the results for a housekeeping gene, G3PDH.
IL-4 (final concentration: 0.1, 1.0 or 10 ng/ml), TNFα (final concentration: 0.1, 1.0 or 10 ng/ml) and IFNγ (final concentration: 1.0, 10 or 100 ng/ml) were respectively added to cultured keratinocytes in the proliferation stage, and after incubating for 24 hours, RNA was collected using Isogen. Expression of bleomycin hydrolase mRNA was measured by quantitative PCR. Based on the results shown in FIG. 14, a type of cytokine, interleukin-4 (IL-4) can be understood to down-regulate expression of bleomycin hydrolase.

Sp-1 = experiment: Effect of cytokines on Sp-1 expression in cultured keratinocytes (FIG. 22); assay type: cell-based, human; conditions: most effective at IL-4 10 ng/ml
Procedure: (§2) Transcription levels of BH and related factors were analyzed by quantitative real-time RT-PCR. Total RNA was extracted from cultured cells using Isogen (Nippon Gene Co., Ltd., Tokyo, Japan) in accordance with the instructions provided by the manufacturer. Reverse transcription of cDNA was carried out using SuperScript™ II (Invitrogen Corp., Carlsbad, Calif.). Real-time RT-PCR was carried out with the Light Cycler Raid Cycler System using the Light Cycler 480 SYBR Green I Master Mix (Roche Diagnostics GmbH) in accordance with the instructions provided by the manufacturer. Glyceraldehyde 3-phosphate dehydrogenase (GAPDH) was used as a housekeeping gene. Specificity of the amplified fragments was confirmed by quantitative analysis of melting curves by Light Cycler analytical software. The amounts of mRNA were standardized with respect to GAPDH mRNA, and finally indicated as a ratio to the mRNA of an untreated control.
(§3) An investigation was conducted of the cytokine-dependent regulation of these transcription factors.

IRF-1 = experiment: Effect of cytokines on IRF-1 mRNA expression in cultured keratinocytes (FIG. 22); assay type: cell-based, human
Procedure: as §2, §3

IRF-2 = experiment: Effect of cytokines on IRF-2 mRNA expression in cultured keratinocytes (FIG. 22); assay type: cell-based, human
Procedure: as §2, §3

BH gene = experiment: Cytokine-mediated regulation of BH gene expression, real-time RT-PCR (Experiment 6, FIG. 20A); assay type: cell-based, human; conditions: proliferating keratinocytes, 24 hours of incubation
Procedure: as §1, §2
Since BH is an NMF-producing enzyme, it has the possibility of being involved in the pathophysiology of AD. Accordingly, an investigation was conducted of the effects of Th1, Th2 and Th17 cytokines on BH gene expression. […] Similar results were obtained with differentiated keratinocytes (data not shown). In order to clarify the role of IFN-γ in the regulation of BH gene expression, a promoter assay was carried out to identify cytokine response elements. […] IFN-γ no longer suppressed promoter activity after this sequence was deleted (FIG. 20B). […]

MZF-1 = experiment: Effect of cytokines on MZF-1 expression in cultured keratinocytes (FIG. 22); assay type: cell-based, human; conditions: most effective at IL-4 10 ng/ml
Procedure: as §2, §3

BH promoter = BH promoter luciferase assay in transfected cultured keratinocytes (FIG. 20B); assay type: cell-based, human; conditions: keratinocytes transfected with pGL3-BH-616 containing IRF-1/2 binding sites, 24 hours
Procedure: Keratinocytes were cultured in a 12-well tissue culture plate at a density of 5×10^4 cells/well followed by transfection with 1 μg aliquots of each construct using FuGene HD Transfection Reagent (Roche Diagnostics AG, Basel, Switzerland). In order to correct for transfection efficiency, all cells were simultaneously transfected with pGL4.74 [hRluc-TK] vector (Promega Co.) containing sea pansy (Renilla) luciferase gene under the control of HSV-TK promoter. Unless specifically indicated otherwise, the cells were collected 24 hours after transfection and lysed using […] of Passive Lysis Buffer (Promega Co.) per well. Luciferase activity was analyzed using the Dual Luciferase Reporter Assay System (Promega Co.) and Auto Lumat Plus Luminoeter (Berthold Technologies GmbH, Bad Wilbad, Germany). Firefly luciferase activity was standardized for sea pansy luciferase activity. Three transfections were independently carried out for each construct and results were expressed as the mean value thereof.
Since BH is an NMF-producing enzyme, it has the possibility of being involved in the pathophysiology of AD. Accordingly, an investigation was conducted of the effects of Th1, Th2 and Th17 cytokines on BH gene expression. […] Similar results were obtained with differentiated keratinocytes (data not shown). […]

[3] = only at IL-4 100 ng/ml, FIG. 22B

| Compound | expression of bleomycin hydrolase in comparison with the control (bleomycin hydrolase [1]) | production of bleomycin hydrolase, concentration dependence (bleomycin hydrolase [1]) | expression of bleomycin hydrolase mRNA (bleomycin hydrolase [2]) | BH mRNA expression (BH gene) | also measured |
| --- | --- | --- | --- | --- | --- |
| OC[C@@H](O)[C@@H](O)CO [erythritol] | significantly increase | concentration-dependently promotes production | – | – | – |
| IL-4: Th2 cytokine, human IL-4 purchased from Peprotech EC | – | – | down-regulates | did not demonstrate any direct action whatsoever | expression of Sp-1 (Sp-1): down-regulated most effectively; also recorded: down-regulated; expression of IRF-1 (IRF-1; [3]): significantly amplified; expression of IRF-2 (IRF-2; [3]): significantly amplified; expression of MZF-1 (MZF-1): down-regulated most effectively; also recorded: down-regulated |
| O=C(O)CCCNS(=O)(=O)c1ccccc1 [benzenesulfonyl GABA, benzenesulfonyl γ-aminobutyric acid] | significantly increase | concentration-dependently promotes production | – | – | – |
| TNFα | – | – | significantly increases | – | – |
| IFN-γ: Th1 cytokine, human IFN-γ purchased from Peprotech EC | – | – | significantly increases | dose-dependent down-regulation; also recorded: remarkably suppressed; also recorded: significantly decreases | IRF-1 mRNA expression (IRF-1; IFN-γ treatment, FIG. 22A): potent dose-dependent up-regulation; IRF-2 expression (IRF-2; IFN-γ treatment, FIG. 22A): up-regulated; BH promoter activity (luciferase) (BH promoter): down-regulated |
| IL-13: Th2 cytokine, human IL-13 manufactured by R&D Systems Inc. | – | – | – | did not demonstrate any direct action whatsoever | – |

— patent US20140010901A1, “BLEOMYCIN HYDROLASE PRODUCTION PROMOTOR” (Shiseido Company, Ltd., priority 2011, published 2014)
